Blank lines part the entries; values can stand above or below the molecule they belong to.
Tests used:
[1] = biological target: GST-Pin1 (Homo sapiens, UniProt Q13526); assay: Fluorescence polarization (FP) competition assay; assay type: binding; conditions: FP assay, competition with fluorescein-labeled peptide, 250 nM GST-Pin1; read-out: Ki (apparent)
Procedure: Binding affinity to Pin1 was determined using a fluorescence polarization assay to assess competition with an N-terminal fluorescein-labeled peptide (Bth-D-phosThr-Pip-Nal), which was obtained from JPT Peptide Technologies and Proteintech Group. The indicated concentrations of candidate compound were pre-incubated for 12 hours at 4° C. with a solution containing 250 nM glutathione S-transferase (GST)-Pin1, 5 nM of fluorescein-labeled peptide probe, 10 μg/ml bovine serum albumin, 0.01% Tween-20 and 1 mM DTT (dithiothreitol) in a buffer of 10 mM HEPES, 10 mM NaCl and 1% glycerol (pH 7.4). Measurements of FP were performed in black 384-well plates (Corning) using an EnVision™ reader. Apparent Ki values (under the tested conditions) obtained from the FP assay results were derived from the Kenakin Ki equation:
Kenakin Ki=(Lb)(EC50)(Kd)/(Lo)(Ro)+Lb(Ro−Lo+Lb−Kd)
Sittampalam G. S. et al., Eli Lilly & Company and the National Center for Advancing Translational Sciences, 2004].
Covalent labeling of Pin1 was confirmed to translate into enzyme inhibition via a fluorescence polarization (FP) competition assay using a FITC-labeled substrate mimetic peptide inhibitor, as well as a chymotrypsin-coupled PPIase assay, using procedures described in Wei et al. [Nat Med 2015, 21:457-466].
The fluorescent polarization assay was performed in a dose-dependent and time-dependent manner, in order to further characterize the kinetic parameters of Pin1-3 binding to Pin1.

[2] = biological target: T1, catalytic domain of Pin1 (Homo sapiens, UniProt Q13526); assay: Intact protein LC/MS labeling of Pin1; assay type: binding
T1 construct: The purified catalytic domain of Pin1 was incubated with the fragment library
T1 sequence (Q13526 52-163 limits assumed): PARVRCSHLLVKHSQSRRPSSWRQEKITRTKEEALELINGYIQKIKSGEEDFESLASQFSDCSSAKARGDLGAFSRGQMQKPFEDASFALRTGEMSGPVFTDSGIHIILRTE
Procedure: 993 compounds were transferred to a 384-well plate working copy by combining 0.5 μl of 20 mM stock solution of four or five compounds per well. The catalytic domain of Pin1 (2 μM) in 20 mM Tris, 75 mM NaCl, pH 7.5 was incubated with 200 μM for each compound and moderately shaken for 24 hours at 4° C. The reaction was stopped by the addition of formic acid to 0.4% (v/v) final concentration.
Liquid chromatography/mass spectroscopy runs were performed on an Acquity™ UPLC® H-class system (Waters) in positive ion mode using electrospray ionization (ESI). UPLC separation was performed on a C4 column (300 Å, 1.7 μM, […]). The column was held at 40° C., and the autosampler at 10° C. Mobile solution A was 0.1% formic acid in water and mobile phase B was 0.1% formic acid in acetonitrile. Run flow was 0.4 ml/minute; and a gradient of 20% B for 2 minutes, increasing linearly to 60% B for 3 minutes, holding at 60% B for 1.5 minutes, changing to 0% B in 0.1 minute and holding at 0% for 1.4 minutes, was used. Desolvation temperature was 500° C. with a flow rate of 1000 liters/hour. The capillary voltage was 0.69 kV and cone voltage 46 V. Raw data was processed using OpenLynx™ software and deconvoluted using the MaxEnt tool. Labeling assignment was performed as described in Resnick et al. [J Am Chem Soc 2019, 141:8951-8968].
For the screening 2 μl of each of the 448 click products as 50 μM DMSO stocks were transferred into a 384-well plate working plate. 48 μl of catalytic domain of Pin1 (2 μM) in 20 mM Tris (pH 7.5) with 75 mM NaCl were added and moderately shaken and incubated for 15 minutes at room temperature. The reaction was stopped by the addition of formic acid to 0.4% (v/v) final concentration (20 μl). The mixtures were analyzed by liquid chromatography/mass spectroscopy analogously to the electrophile library incubations described herein. Hits were retrospectively analyzed by liquid chromatography/mass spectroscopy (LC-MS) to ensure reaction completion.
For each measured well, processed peaks were searched to match the mass of unlabeled protein or common small adducts of the unlabeled protein, which were found in the control sample or labeled protein. Labeling percentage for a compound was determined as the labeling of a specific compound divided by the overall detected protein species. Peaks whose mass could not be assigned were discarded from the overall labeling calculation. Data was analyzed using a python script for processing the MaxEnt-deconvoluted spectra. Peaks were normalized from ion counts to percentages, where the highest peak is defined as 100%. The unlabeled protein mass is deduced from a reference well that contains just the protein.
The purified catalytic domain of Pin1 was incubated with the fragment library (2 μM protein, 200 μM compound; 24 hours at 4° C.), followed by intact protein liquid chromatography/mass-spectrometry (LC/MS) to identify and quantify compound labeling. FIG. 1 depicts an example of a compound identified in this manner.
Based on the docking predictions, a total of 26 compounds that featured a range of small or bulky aliphatic, arylic, biphenylic or heterocyclic side-chains (structures depicted in FIG. 5), were synthesized or purchased. In order to identify potent binders, the irreversible labeling efficiency of these second-generation compounds was assessed alongside the original screening hits under more stringent conditions, with a 1:1 ratio of protein to compound (2 μM compound; 1 hour at room temperature).
For further optimization of the lipophilic moiety, an alkyne side chain-bearing analog was prepared, which was derivatized with 448 different azides using copper-catalyzed azide-alkyne cycloaddition (CuAAC).

[3] = Thiol reactivity assay (DTNB); assay type: physicochemical; conditions: 200 μM compound, pH 7.4, 37° C.
Procedure: 50 μM DTNB (dithionitrobenzoic acid) was incubated with 200 μM TCEP (tris(2-carboxytehyl)phosphine) in 20 mM sodium phosphate buffer (pH 7.4) with 150 mM NaCl, for 5 minutes at room temperature, in order to obtain TNB^2− (thionitrobenzoate dianion). 200 μM compounds were subsequently added to the TNB^2−, followed by immediate UV absorbance measurement at 412 nm (at 37° C.). The UV absorbance was acquired every 15 minutes for 7 hours. The assay was performed in a 384-well plate using a Spark™ 10M plate reader (Tecan). Background absorbance of compounds was subtracted by measuring the absorbance at 412 nm of each compound under the same conditions without DTNB. Compounds were measured in triplicates. The data was fitted to a second order reaction equation such that the rate constant k is the slope of ln([A][B0]/[B][A0]), where [A0] and [B0] are the initial concentrations of the compound (200 μM) and TNB^2− (100 μM) respectively, and [A] and [B] are the remaining concentrations as a function of time, as determined from the spectrometric measurement. Linear regression using Prism® software was performed to fit the rate against the first four hours of measurements.
In order to estimate the influence of the various lipophilic moieties on “warhead” reactivity [Flanagan et al., J Med Chem 2014, 57:10072-10079; Lonsdale et al., J Chem Inf Model 2017, 57:3124-3137; Dahal et al., Medchemcomm 2016, 7:864-872], the thiol reactivity of the top ten binders of the second and third generation was assessed using a high-throughput assay previously applied to the entire fragment library, as described in Resnick et al. [J Am Chem Soc 2019, 141:8951-8968]. In brief, the second-order rate constant was evaluated for a model thiol, which reflects trends in general reactivity towards thiol groups.

[4] = test system: MDA-MB-231 cells; assay: Cell viability assay (CellTiter-Glo); assay type: cell-based; conditions: cell viability assay with MDA-MB-231 cells
Procedure: MDA-MB-231 cells grew in DMEM medium supplemented with 10% FCS (fetal calf serum), 1% PS (penicillin-streptomycin) and 1% L-glutamine (all from Biological Industries). Exclusion of mycoplasma contamination was monitored and conducted by test with MycoAlert™ kit (Lonza). Cells were trypsinized and counted, and 1000 cells/well were plated in 50 μl of growth medium into 384-well white TC plates (Greiner) using Multidrop™ 384 (Thermo Scientific) Washer Dispenser II. The number of viable cells was monitored using CellTiter-Glo® Luminescent kit (Promega) in accordance with the manufacturer's protocol. Luminescence was measured using luminescence module of PHERAstar™ FS plate reader (BMG Labtech). Data analysis was performed using GeneData 12 analytic software. Assay ready plate preparation: Compounds transferred into black microplates (Greiner 784900) using Labcyte Echo® acoustic dispensing technology. Assay ready plates were then sealed with heat seals. If not used immediately, plates were frozen at −20° C. and held in polypropylene boxes with silica-gel desiccant.
Exemplary Pin1-binding compounds were also tested for non-selective cytotoxicity in a viability assay against IMR90 lung fibroblasts.

[5] = 2 μM Pin1 with 2 μM test compound for 1 hour at room temperature

GST-Pin1, sequence (Q13526 whole entry): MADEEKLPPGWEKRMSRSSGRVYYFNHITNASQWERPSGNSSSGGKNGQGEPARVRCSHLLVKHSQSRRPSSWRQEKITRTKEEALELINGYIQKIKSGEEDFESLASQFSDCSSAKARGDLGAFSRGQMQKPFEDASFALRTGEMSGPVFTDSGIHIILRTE

SMILES: O=C1C=CC(=O)c2c(O)cccc21 [Juglone, 5-hydroxy-1,4-naphthalenedione, reference compound]
Ki [1]: 1750 nM

SMILES: O=C(CCl)N(C1CCS(=O)(=O)C1)C(Cc1ccccc1)c1ccccc1 (centres unmarked) [Pin1-2-1]
Labeling [%] [2, 5]: 50%
Reactivity Log k [3]: −6.96
Reactivity k [3]: 1.09e-07 M⁻¹ s⁻¹
Ki [1]: 58 nM
EC50 [4]: 2800 nM

SMILES: O=C(CCl)N(CC1CCCCC1)C1CCS(=O)(=O)C1 (centres unmarked) [Pin1-2-3, 2-chloro-N-(sulfolan-3-yl)-N-(cyclohexylmethyl)acetamide]
Labeling [%] ([2]; 2 μM Pin1 with 2 μM test compound for 15 minutes at room temperature): 42%
Reactivity Log k [3]: −6.82
Reactivity k [3]: 1.53e-07 M⁻¹ s⁻¹
Ki [1]: 46 nM
EC50 ([4]; Homo sapiens): 7500 nM

SMILES: Cc1cccc(CN(C(=O)CCl)C2CCS(=O)(=O)C2)c1 (centres unmarked) [Pin1-2-6]
Labeling [%] [2, 5]: 30%
Reactivity Log k [3]: −6.80
Reactivity k [3]: 1.58e-07 M⁻¹ s⁻¹
Ki [1]: 194 nM
EC50 [4]: 5600 nM

SMILES: O=C(CCl)N(Cc1ccccc1OCc1ccccc1)C1CCS(=O)(=O)C1 (centres unmarked) [Pin1-2-7]
Labeling [%] [2, 5]: 37%
Reactivity Log k [3]: −6.99
Reactivity k [3]: 1.02e-07 M⁻¹ s⁻¹
Ki [1]: 39 nM
EC50 [4]: 6100 nM

SMILES: Cc1ccsc1CN(C(=O)CCl)C1CCS(=O)(=O)C1 (centres unmarked) [Pin1-2-8]
Labeling [%] [2, 5]: 52%
Reactivity Log k [3]: −6.66
Reactivity k [3]: 2.19e-07 M⁻¹ s⁻¹
Ki [1]: 133 nM
EC50 [4]: 5100 nM

SMILES: CC1(N(Cc2ccccc2)C(=O)CCl)CCS(=O)(=O)C1 (centres unmarked) [Pin1-2-9]
Labeling [%] [2, 5]: 43%
Reactivity Log k [3]: −7.11
Reactivity k [3]: 7.68e-08 M⁻¹ s⁻¹
Ki [1]: 83 nM
EC50 [4]: 11300 nM

SMILES: O=C(CCl)N(CC1CC1)C1CCS(=O)(=O)C1 (centres unmarked) [Pin1-3-13]
Reactivity Log k [3]: −6.82
Reactivity k [3]: 1.5e-07 M⁻¹ s⁻¹
Ki [1]: 121 nM

Second part, led by results:

Labeling [%] [2, 5]: 25%
SMILES: O=C(CCl)N(Cc1ccco1)C1CCS(=O)(=O)C1 (centres unmarked) [Pin1-128]
Reactivity Log k [3]: −6.83
Reactivity k [3]: 1.47e-07 M⁻¹ s⁻¹

Labeling [%] [2, 5]: 12%
SMILES: COCCN(C(=O)CCl)C1CCS(=O)(=O)C1 (centres unmarked) [Pin1-324]
Reactivity Log k [3]: −6.80
Reactivity k [3]: 1.59e-07 M⁻¹ s⁻¹

Labeling [%] [2, 5]: 45%
EC50 [4]: 8900 nM
SMILES: O=C(CCl)N(Cc1cccs1)C1CCS(=O)(=O)C1 (centres unmarked) [Pin1-433]
Reactivity Log k [3]: −6.67
Reactivity k [3]: 2.13e-07 M⁻¹ s⁻¹

Labeling [%] [2, 5]: 0%
SMILES: CN(C)CCN(C(=O)CCl)C1CCS(=O)(=O)C1 (centres unmarked) [Pin1-707]
Reactivity Log k [3]: −8.93
Reactivity k [3]: 1.17e-09 M⁻¹ s⁻¹

Labeling [%] [2, 5]: 16%
SMILES: O=C(CCl)N(CC1CCCO1)C1CCS(=O)(=O)C1 (centres unmarked) [Pin1-838]
Reactivity Log k [3]: −6.85
Reactivity k [3]: 1.41e-07 M⁻¹ s⁻¹
